How the values were obtained:
Assay type in all cases: in vivo
Glycine max [1] = assay: Herbicidal activity, postemergence test (Example 66); conditions: post; 1000 g/ha; assessed visually twenty days after spraying
Procedure: (§1) To evaluate their herbicidal activity, compounds according to the invention are tested using a representative range of plants: ZEAMX Zea mays ORYSA Oryza sativa GLXMA Glycine max BEAVA Beta vulgaris LIUUT Linum usitatissimum AVEFA Avena fatua ECHCG Echinochloa crus-galli SINAL Sinapsis alba
(§2) The tests fall into two categories, preemergence and postemergence. The preemergence tests involve spraying a liquid formulation of the compound onto the soil in which the seeds of the plant species mentioned above have recently been sown. The postemergence tests involve spraying a liquid formulation of the compound onto seedling plants of the above species.
(§3) The soil used in the tests is a prepared horticultural loam.
(§4) The formulations used in the tests are prepared from solutions of the test compounds in acetone containing 0.4% by weight of an alkylphenol/ethylene oxide condensate available under the trademark TRITON X-155. These acetone solutions are diluted with water and the resulting formulations applied at dosage levels corresponding to 1000 g of active material per hectare in a volume equivalent to 900 litres per hectare.
(§5) In the preemergence tests, untreated sown soil, and in the postemergence tests, untreated soil bearing seedling plants, are used as controls.
(§6) The herbicidal effects of the test compounds are assessed visually twenty days after spraying the foliage and the soil and are recorded on a 0-9 scale. A rating of 0 indicates growth as untreated control, a rating of 9 indicates death. An increase of 1 unit on the linear scale approximates to an 11% increase in the level of effect.

Glycine max [2] = assay: Herbicidal activity, preemergence test (Example 66); parameters: key: A rating of 0 indicates growth as untreated control; a rating of 9 indicates death; conditions: pre; 1000 g/ha; assessed visually twenty days after spraying
Procedure: as §1, §2, §3, §4, §5, §6

Zea mays [3] = assay: as above; parameters: key: A rating of 0 indicates growth as untreated control; a rating of 9 indicates death; conditions: pre; 1000 g/ha; assessed visually twenty days after spraying
Procedure: as §1, §2, §3, §4, §5, §6

Sinapsis alba [4] = assay: as above; parameters: key: A rating of 0 indicates growth as untreated control; a rating of 9 indicates death; conditions: pre; 1000 g/ha; assessed visually twenty days after spraying
Procedure: as §1, §2, §3, §4, §5, §6

Avena fatua [5] = assay: as above; parameters: key: A rating of 0 indicates growth as untreated control; a rating of 9 indicates death; conditions: pre; 1000 g/ha; assessed visually twenty days after spraying
Procedure: as §1, §2, §3, §4, §5, §6

Oryza sativa [6] = assay: as above; parameters: key: A rating of 0 indicates growth as untreated control; a rating of 9 indicates death; conditions: pre; 1000 g/ha; assessed visually twenty days after spraying
Procedure: as §1, §2, §3, §4, §5, §6

Linum usitatissimum [7] = assay: as above; parameters: key: A rating of 0 indicates growth as untreated control; a rating of 9 indicates death; conditions: pre; 1000 g/ha; assessed visually twenty days after spraying
Procedure: as §1, §2, §3, §4, §5, §6

Echinochloa crus-galli [8] = assay: as above; parameters: key: A rating of 0 indicates growth as untreated control; a rating of 9 indicates death; conditions: pre; 1000 g/ha; assessed visually twenty days after spraying
Procedure: as §1, §2, §3, §4, §5, §6

Beta vulgaris [9] = assay: as above; parameters: key: A rating of 0 indicates growth as untreated control; a rating of 9 indicates death; conditions: pre; 1000 g/ha; assessed visually twenty days after spraying
Procedure: as §1, §2, §3, §4, §5, §6

Zea mays [10] = assay: Herbicidal activity, postemergence test (Example 66); parameters: key: A rating of 0 indicates growth as untreated control; a rating of 9 indicates death; conditions: post; 1000 g/ha; assessed visually twenty days after spraying
Procedure: as §1, §2, §3, §4, §5, §6

Sinapsis alba [11] = assay: as above; parameters: key: A rating of 0 indicates growth as untreated control; a rating of 9 indicates death; conditions: post; 1000 g/ha; assessed visually twenty days after spraying
Procedure: as §1, §2, §3, §4, §5, §6

Avena fatua [12] = assay: as above; parameters: key: A rating of 0 indicates growth as untreated control; a rating of 9 indicates death; conditions: post; 1000 g/ha; assessed visually twenty days after spraying
Procedure: as §1, §2, §3, §4, §5, §6

Oryza sativa [13] = assay: as above; parameters: key: A rating of 0 indicates growth as untreated control; a rating of 9 indicates death; conditions: post; 1000 g/ha; assessed visually twenty days after spraying
Procedure: as §1, §2, §3, §4, §5, §6

Linum usitatissimum [14] = assay: as above; parameters: key: A rating of 0 indicates growth as untreated control; a rating of 9 indicates death; conditions: post; 1000 g/ha; assessed visually twenty days after spraying
Procedure: as §1, §2, §3, §4, §5, §6

Echinochloa crus-galli [15] = assay: as above; parameters: key: A rating of 0 indicates growth as untreated control; a rating of 9 indicates death; conditions: post; 1000 g/ha; assessed visually twenty days after spraying
Procedure: as §1, §2, §3, §4, §5, §6

Beta vulgaris [16] = assay: as above; parameters: key: A rating of 0 indicates growth as untreated control; a rating of 9 indicates death; conditions: post; 1000 g/ha; assessed visually twenty days after spraying
Procedure: as §1, §2, §3, §4, §5, §6

SMILES	herbicidal effects on a 0-9 scale, GLXMA (Glycine max [1])	herbicidal effects on a 0-9 scale, GLXMA (Glycine max [2])	herbicidal effects on a 0-9 scale, ZEAMX (Zea mays [3])	herbicidal effects on a 0-9 scale, SINAL (Sinapsis alba [4])	herbicidal effects on a 0-9 scale, AVEFA (Avena fatua [5])	herbicidal effects on a 0-9 scale, ORYSA (Oryza sativa [6])	herbicidal effects on a 0-9 scale, LIUUT (Linum usitatissimum [7])	herbicidal effects on a 0-9 scale, ECHCG (Echinochloa crus-galli [8])	herbicidal effects on a 0-9 scale, BEAVA (Beta vulgaris [9])	herbicidal effects on a 0-9 scale, ZEAMX (Zea mays [10])	herbicidal effects on a 0-9 scale, SINAL (Sinapsis alba [11])	herbicidal effects on a 0-9 scale, AVEFA (Avena fatua [12])	herbicidal effects on a 0-9 scale, ORYSA (Oryza sativa [13])	herbicidal effects on a 0-9 scale, LIUUT (Linum usitatissimum [14])	herbicidal effects on a 0-9 scale, ECHCG (Echinochloa crus-galli [15])	herbicidal effects on a 0-9 scale, BEAVA (Beta vulgaris [16])
CCNC(=O)c1nc(-c2ccc(F)cc2)ns1 [Example 17]	5	0	0	0	0	0	0	0	0	2	8	4	0	2	2	7
O=C(NCc1cccs1)c1nc(-c2ccc(F)cc2)ns1 [Example 14]	2	0	0	0	0	0	0	0	0	0	8	0	0	5	2	8
C[C@H](NC(=O)c1nc(-c2ccc(F)cc2)ns1)c1ccccc1 [Example 16, (S)-3-(4-Fluorophenyl)-[1,2,4]thiadiazole-5-carboxylic acid, 1-(phenylethyl)amide]	6	0	0	0	0	0	0	0	0	0	9	7	2	7	8	9

Source: patent EP0726261A1, “Herbidical 1,2,4 thiadiazoles” (American Cyanamid Company, priority 1995, dated 1996)
